Results from US6583138B1, “Heterocyclic-ring condensed benzothiazine compound” (Eisai Co., Ltd., priority 1998, dated 2003).
Read-outs that look alike come from different tables or passages of the source.

Tests used:
[1] = test system: RBL-2H3 cells; assay: Inhibition of serotonin liberation from IgE-sensitized, antigen-stimulated RBL-2H3 cells; assay type: cell-based; settings: Rattus norvegicus, [3H]-serotonin release, IgE-sensitized cells stimulated with specific antigen
Excerpt: (1) Inhibitory Effects on Various Mediators Release from Rat Basophilic Leukemia Cell Line (RBL-2H3)
RBL-2H3cells (i.e., a cell line originating in rat cells), by stimulation with IgE sepecific antigen, not only release histamine and serotonin but also release and produce cytokines such as TNF α and prostaglandins which are inflammatory mediators. In this experimental system, inhibitory effects on various mediators release were examined by using serotonin as an indication.
The cells were beforehand labeled with [^3H]-labeled serotonin and, at the same time, sensitized with the IgE antibody. After incubating with the compounds of the present invention, they were stimulated with the specific antigen. Then the inhibitory activity of each compound was calculated from the amount of the [^3H]-labeled serotonin thus liberated into the medium due to the stimulation and the amount of [^3H]-labeled serotonin liberated when no compound of the present invention was added.

[2] = test system: human basophils; assay: Inhibition of mediator (histamine, peptide leukotriene) liberation from human basophils stimulated with mite antigen; assay type: cell-based; settings: leukocyte fraction, enzyme immunoassay
Protocol: (2) Inhibitory Effects on Various Mediators Release from Human Basophils
6 ml of 6% dextran (for separating leukocytes, having a high molecular weight) was added to 20 ml of heparinized blood. After stirring well, the resulting mixture was allowed to stand at 37° C. for 30 min and thus erythrocytes were precipitated. The upper layer was taken up and phosphate buffered saline was added thereto followed by centrifugation at 185 g for 8 minutes to give a crude leukocyte fraction. These cells were subjected to hypotonic hematolysis and then suspended in D-PBS(+) containing 0.1%-BSA. The resulting suspension was used in the subsequent experiment as the leukocyte fraction containing basophils. 0.4 ml of this cell suspension was preliminarily heated to 37° C. for 5 min and then 0.05 ml of a specimen solution was added thereto followed by a pretreatment at 37° C. for 15 min. Next, 0.05 ml of a mite antigen solution was added thereto to induce an antigen-antibody reaction. After 10 min, the reaction was ceased by ice-cooling. Then the reaction mixture was centrifuged again at 185 g for 10 min and histamine and peptide leukotrienes in the resulting supernatant were determined by using enzyme immunoassay kits. From the results of the assay, the activities of the a heterocyclic ring condensed benzothiazine compound of inhibiting the liberation of histamine and peptide leukotriene were determined.
The results are given in Table 2, wherein the term “leukotriene” means peptide leukotriene.

[3] = histamine, read-out: IC50 (μM) in mediator liberation from human basophils: histamine
[4] = peptide leukotriene, read-out: IC50 (μM) in mediator liberation from human basophils: leukotriene

SMILES	IC50 [1] [µM]	IC50 [2, 3] [µM]	IC50 [2, 4] [µM]
Cc1ccc2c(c1C)N(CCCNCc1ccccc1)c1ccsc1[S+]2[O-] (centres unmarked) [Example 1, 9-(3-Benzylaminopropyl)-7,8-dimethyl-3-thieno [1,4]benzothiazine-4-oxide]	2	10 to 30	10
Cc1ccc2c(c1C)N(CCCNC(C)(C)c1ccccc1)c1ccsc1[S+]2[O-] (centres unmarked) [Example 2]	–	30	10 to 30
Cc1ccc2c(c1C)N(CCCN)c1ccsc1[S+]2[O-] (centres unmarked) [Example 3, 9-(3-Aminopropyl)-7,8-dimethyl-3-thieno[1,4]benzothiazine-4-oxide]	8	–	–
Cc1ccc2c(c1C)N(CCCNCc1cccs1)c1ccsc1[S+]2[O-] (centres unmarked) [Example 4, 7,8-Dimethyl-9-[3-(2-thiophenyl)methylaminopropyl]-3-thieno[1,4]benzothiazine-4-oxide]	2	10 to 30	10
COc1ccc(CNCCCN2c3ccsc3[S+]([O-])c3ccc(C)c(C)c32)o1 (centres unmarked) [Example 5]	6	–	–
COc1ccsc1CNCCCN1c2ccsc2[S+]([O-])c2ccc(C)c(C)c21 (centres unmarked) [Example 6]	2	30	10 to 30
Cc1ccc2c(c1C)N(CCCNC(C)(C)c1ccccc1)c1c(Br)csc1[S+]2[O-] (stereo not drawn) [Example 7, 1-Bromo-7,8-dimethyl-9-[3-(α,α-dimethylbenzyl)aminopropyl]-3-thieno[1,4]benzothiazine-4-oxide]	2	3 to 10	3 to 10
Cc1ccc2c(c1C)N(CCCNCc1ccccc1)c1c(Br)csc1[S+]2[O-] (centres unmarked) [Example 8, 9-(3-benzylaminopropyl)-7,8-dimethyl-3-thieno[1,4]benzothiazine-4-oxide]	1	10	3
COc1ccsc1CNCCCN1c2c(Br)csc2[S+]([O-])c2ccc(C)c(C)c21 (centres unmarked) [Example 9]	0.5	10 to 30	3
Cc1ccc2c(c1C)N(CCCNCc1cccc(F)c1O)c1c(Br)csc1[S+]2[O-] (centres unmarked) [Example 10]	0.5	30	3 to 10
Cc1ccc2c(c1C)N(CCCNCc1ccccc1)c1c(CO)csc1[S+]2[O-] (centres unmarked) [Example 11, 9-(3-benzylaminopropyl)-1-hydroxymethyl-7,8dimethyl-3-thieno[1,4]benzothiazine-4-oxide]	5	10	3
Cc1ccc2c(c1C)N(CCCNCc1ccccc1)c1c(sc(CO)c1Br)[S+]2[O-] (centres unmarked) [Example 12, 1-Bromo-9-(3-benzylaminopropyl)-2-hydroxymethyl-7,8-dimethyl-3-thieno[1,4]benzothiazine-4-oxide]	4	10	3
Cc1ccc2c(c1C)N(CCCN)c1cccnc1[S+]2[O-] (centres unmarked) [Example 13]	3	–	–
Cc1ccc2c(c1C)N(CCCNCc1ccccc1)c1cccnc1[S+]2[O-] (centres unmarked) [Example 15]	0.5	–	–
Cc1ccc2c(c1C)N(CCCNCc1ccccc1O)c1cccnc1[S+]2[O-] (centres unmarked) [Example 16]	2	10	10 to 30
COc1cccc(CNCCCN2c3cccnc3[S+]([O-])c3ccc(C)c(C)c32)c1O (centres unmarked) [Example 17]	2	10 to 30	10 to 30
Cc1ccc2c(c1C)N(CCCNCc1cccc(C)c1O)c1cccnc1[S+]2[O-] (centres unmarked) [Example 18]	2	30	10 to 30
Cc1ccc2c(c1C)N(CCCCNCc1ccccc1)c1cccnc1[S+]2[O-] (centres unmarked) [Example 19]	1	–	–
COc1ccccc1CNCCCN1c2cccnc2[S+]([O-])c2ccc(C)c(C)c21 (centres unmarked) [Example 20]	5	–	–
COc1cccc(CNCCCN2c3cccnc3[S+]([O-])c3ccc(C)c(C)c32)c1 (centres unmarked) [Example 24]	4	–	–

SMILES	IC50 [1] [µM]	IC50 [2, 3] [µM]	IC50 [2, 4] [µM]
COc1ccc(CNCCCN2c3cccnc3[S+]([O-])c3ccc(C)c(C)c32)cc1 (centres unmarked) [Example 25]	2	–	–
Cc1ccc2c(c1C)N(CCCNCN1CCN(Cc3ccccc3)CC1)c1cccnc1[S+]2[O-] (centres unmarked) [Example 26]	2	–	–
Cc1ccc2c(c1C)N(CCCNCc1ccc(Cl)cc1Cl)c1cccnc1[S+]2[O-] (centres unmarked) [Example 31]	2	10 to 30	10
COc1c(CNCCCN2c3cccnc3[S+]([O-])c3ccc(C)c(C)c32)ccc(Cl)c1Cl (centres unmarked) [Example 33]	2	10 to 30	3 to 10
Cc1ccc2c(c1C)N(CCCNC(C)(C)c1ccccc1)c1cccnc1[S+]2[O-] (centres unmarked) [Example 34]	5	–	–
Cc1ccc2c(c1C)N(CCCN(C)Cc1ccccc1)c1cccnc1[S+]2[O-] (centres unmarked) [Example 35]	3	–	–
Cc1ccc2c(c1C)N(CCCNCc1ccccc1)c1cnccc1[S+]2[O-] (centres unmarked) [Example 36]	4	–	–
COc1cccc(CNCCCN2c3cnccc3[S+]([O-])c3ccc(C)c(C)c32)c1O (centres unmarked) [Example 37]	3	30	30
Cc1ccc2c(c1C)N(CCCNCc1ccccc1N(C)C)c1cnccc1[S+]2[O-] (centres unmarked) [Example 38]	4	–	–
Cc1ccc2c(c1C)N(CCCNCN1CCN(Cc3ccccc3)CC1)c1cnccc1[S+]2[O-] (centres unmarked) [Example 39]	3	–	–
Cc1ccc2c(c1C)N(CCCNCc1ccccn1)c1cnccc1[S+]2[O-] (centres unmarked) [Example 40]	4	–	–
Cc1ccc2c(c1C)N(CCCNCc1cccc(F)c1O)c1cnccc1[S+]2[O-] (centres unmarked) [Example 41]	3	–	–
COc1ccc2c(n1)[S+]([O-])c1ccc(C)c(C)c1N2CCCNCc1ccccc1 (centres unmarked) [Example 43]	2	30	10
Cc1ccc2c(n1)[S+]([O-])c1ccc(C)c(C)c1N2CCCNCc1ccccc1 (centres unmarked) [Example 44]	2	–	–
Cc1ccc2c(c1C)N(CCCNCc1ccccc1)c1cc(Br)cnc1[S+]2[O-] (centres unmarked) [Example 45]	1	–	–
Cc1ccc2c(c1C)N(CCCNCc1ccccc1)c1cc(Cl)cnc1[S+]2[O-] (centres unmarked) [Example 46]	2	–	–
Cc1cnc2c(c1)N(CCCNCc1ccccc1)c1c(ccc(C)c1C)[S+]2[O-] (centres unmarked) [Example 47]	3	–	–
Cc1ccc2c(c1C)N(CCCNCc1ccccc1)c1cc(C#N)cnc1[S+]2[O-] (centres unmarked) [Example 48]	4	–	–
CCCOc1ccc2c(n1)[S+]([O-])c1ccc(C)c(C)c1N2CCCNCc1ccccc1 (centres unmarked) [Example 49]	2	10 to 30	3
CCOc1ccc2c(n1)[S+]([O-])c1ccc(C)c(C)c1N2CCCNCc1ccccc1 (centres unmarked) [Example 52]	3	10 to 30	3
